One substance from patent US6454951B1, “Photosensitive composition” (priority 1996, dated 2002) can be followed below.

Experiment [1] has as its system Escherichia coli. As to the kind of experiment: Photo-inactivation of bacteria by visible light irradiation (cell survival). The conditions noted are these: in words.
For experiment [2], the system named is Vibrio anguillarum. The description is as above. The format is cell-based. The note with it: in words.

“Meso-di(N-methyl-4-pyridyl)diphenylporphine [Di(4-N-MPy)Ph2P]”: the “Photo-inactivation compared with T4MPyP” value in experiment [1] is “more rapid and more intense photo-inactivation”; in experiment [2] (Vibrio anguillarum, visible light) it was “more rapid and more intense photo-inactivation”. Moreover, in experiment [2] (Gram-negative bacteria, FIG. 1, visible light), the “Effect of washing operations on photosensitizing efficiency” value was “less sensitive to washing and retains a high photoactivity”.
